Where “and” joins values, the source holds several entries; their conditions need not be identical. Identical values can stand only once. *: point of attachment. EDDnp = O=[N+]([O-])c1ccc(NCCN*)c([N+](=O)[O-])c1; AMC = Cc1cc(=O)oc2cc(N*)ccc12
Key:
Format in all cases: biochemical
Recombinant human furin [1] = molecular target: T1, Recombinant human furin (Homo sapiens, UniProt P09958); conditions: for kcat / kcat/Km / Km / hydrolysis by furin (result in words, cell spans kcat, Km, kcat/Km and R): pH 7
T1 sequence (P09958 108-715 limits assumed): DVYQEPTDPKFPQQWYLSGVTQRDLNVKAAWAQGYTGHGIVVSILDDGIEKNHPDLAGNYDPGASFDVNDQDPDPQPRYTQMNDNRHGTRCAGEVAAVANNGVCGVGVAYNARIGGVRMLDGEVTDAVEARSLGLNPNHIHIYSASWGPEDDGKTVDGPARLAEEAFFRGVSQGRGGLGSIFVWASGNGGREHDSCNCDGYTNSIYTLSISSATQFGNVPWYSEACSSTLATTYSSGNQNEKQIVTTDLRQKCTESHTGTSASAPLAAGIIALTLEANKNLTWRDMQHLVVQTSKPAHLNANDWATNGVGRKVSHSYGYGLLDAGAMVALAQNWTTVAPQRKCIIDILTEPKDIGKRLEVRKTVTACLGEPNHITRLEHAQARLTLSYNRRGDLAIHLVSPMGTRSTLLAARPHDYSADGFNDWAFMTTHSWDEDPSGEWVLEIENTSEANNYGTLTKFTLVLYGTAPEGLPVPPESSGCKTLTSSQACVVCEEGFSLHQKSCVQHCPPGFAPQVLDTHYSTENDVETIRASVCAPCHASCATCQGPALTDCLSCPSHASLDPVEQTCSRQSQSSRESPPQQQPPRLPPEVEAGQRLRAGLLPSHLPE

Recombinant human furin [2] = molecular target: T1, Recombinant human furin
Recombinant human furin [3] = molecular target: T1, Recombinant human furin; conditions: 4 μM substrate; 10 mM MES, 1 mM CaCl2, 0.01% Triton X-100, pH 7.0, 36.5 °C

| Compound | R: relative kcat/Km values in presence vs. absence of MgCl2 (Recombinant human furin [1]) | kcat (Recombinant human furin [1]) | kcat/Km (Recombinant human furin [1]) | pK1 of pH-profile of furin hydrolysis (Recombinant human furin [2]) | Km (Recombinant human furin [1]) | hydrolysis by furin (result in words, cell spans kcat, Km, kcat/Km and R) (Recombinant human furin [1]) | effect on the rate of hydrolysis of Abz-[…]-Q-EDDnp by furin (Recombinant human furin [3]) |
| --- | --- | --- | --- | --- | --- | --- | --- |
| Abz-RKRSRRQVNTQ-EDDnp [peptide 1] | 44 | 11.3 (8.4) s^−1 | 56300 (1291) (mM.s)^−1 | 5.46 and 5.67 |  |  |  |
| SRRKRR↓SAST [compound 22] | 38 | 11.1 (10.0) s^−1 | 76232 (1992) (mM.s)^−1 |  |  |  |  |
| HNRTKR↓STDG [compound 23] | 28 | 7.8 (0.26) s^−1 | 8210 (289) (mM.s)^−1 |  | 950 nM and 870 nM |  |  |
| NTRSRR↓SVPV [compound 29] |  |  |  |  |  | Slow Hydrolysis |  |
| LTRQRR↓SLLP [compound 8] | 1.3 | 3.3 (1.8) s^−1 | 3510 (2708) (mM.s)^−1 |  | 900 nM and 640 nM |  |  |
| KRRQRR↓RPPQ [compound 21] |  |  |  |  |  | Slow Hydrolysis |  |
| VRRRRR↓YALS [compound 43] |  | 0.60 s⁻¹ | 193 mM/s |  | 3140 nM |  |  |
| KIRRRR↓DVVD [compound 26] | 8.9 | 3.1 (0.60) s^−1 | 53448 (6000) (mM.s)^−1 |  | 50 nM and 100 nM |  |  |
| VQREKR↓AVGI [compound 18] | 3.2 | 2.7 (1.2) s^−1 | 1290 (407) (mM.s)^−1 |  | 2100 nM and 2800 nM |  |  |
| [Cl-].[K+] [KCl] |  |  |  |  |  |  | increased the rate of hydrolysis |
| [Cl-].[Cl-].[Mg+2] [Mg^2+, magnesium chloride] |  |  |  |  |  |  | significant increase |
| SSRHRR↓ALDT [compound 36] | 0.3 | 7.1 (5.6) s^−1 | 1707 (6488) (mM.s)^−1 |  |  |  |  |
| Abz-SRRHKR↓FAGV-Q-EDDnp (Abz-SRRHKRFAGVQ-EDDnp) [peptide 32] | 60 | 2.4 (0.21) s^−1 | 33857 (559) (mM.s)^−1 | 5.27 and 5.42 |  |  |  |
| HRREKR↓SVAL [compound 16] | 0.7 | 7.6 (12.2) s^−1 | 38300 (55636) (mM.s)^−1 |  | 200 nM and 220 nM |  |  |
| RRRKKR↓GLSG [compound 45] | 38 | 6.7 (2.4) s^−1 | 30500 (797) (mM.s)^−1 |  |  |  |  |
| RKRRKR↓ELET [compound 27] | 8.5 | 4.3 (0.23) s^−1 | 1400 (164) (mM.s)^−1 |  |  |  |  |
| RRRAKR↓SPKH [compound 35] | 6.2 | 5.3 (8.7) s^−1 | 4383 (710) (mM.s)^−1 |  |  |  |  |
| VVRVRR↓ELLP [compound 5] | 3.8 | 16.6 (12.2) s^−1 | 13071 (3466) (mM.s)^−1 |  |  |  |  |
| MMRHRR↓ELQR [compound 7] | 1.7 | 10.3 (16.2) s^−1 | 23409 (13508) (mM.s)^−1 |  |  |  |  |
| Abz-RRRKKR↓GLFG-Q-EDDnp [compound 31] |  | 5.0 s⁻¹ | 322 mM/s |  | 15500 nM |  |  |
| Ac-RVRR-{AMC} [compound 38, reference compound] | 0.1 | 0.59 (0.98) s^−1 | 120 (1139) (mM.s)^−1 |  |  |  |  |
| QSRRRR↓QTPP [compound 41] | 0.05 | 3.4 (6.3) s^−1 | 1547 (31067) (mM.s)^−1 |  |  |  |  |
| HHRQRR↓SVSI [compound 37] | 0.1 | 28.9 (39.5) s^−1 | 9031 (116088) (mM.s)^−1 |  |  |  |  |
| HKREKR↓QAKH [compound 39] | 0.1 | 6.3 (6.9) s^−1 | 2354 (17734) (mM.s)^−1 |  |  |  |  |
